The results in this text go back to US20120269882A1, “Brain Delivery of Insulin to Treat Systemic Inflammation” (MOUNT SINAI SCHOOL OF MEDICINE Office of Technology & …, priority 2009, published 2012).

Experiment [1] relates to LPS induced pro-inflammatory proteins in liver. Nature of the experiment: Western blot of liver tissue lysates after LPS injection and ICV infusion. The class given is in vivo, mice. As to conditions: LPS 1 mg/kg i.p., vs vehicle.
Experimental: Quantification of western blot analyses from liver tissue lysates expressed as fold change to vehicle and normalized over β-actin.
Quantification of western blot analyses from liver tissue lysates expressed as fold change to vehicle and normalized over β-actin. Mice were injected with LPS (1 mg/kg, i.p.) and randomly assigned to receive ICV glucose (4 mM) or vehicle infusions for 4 hours until necropsy.
The subject of experiment [2] is LPS induced pro-inflammatory cytokine levels. Description: Serum TNF-α and IL-6 by ELISA after LPS injection and ICV infusion. The experiment is classed as in vivo. Particulars: high fat diet C57B1/6 mice, LPS 1 mg/kg i.p., ICV insulin 0.02 mU/h for 4 h vs vehicle, p<0.05. The protocol: (§1) FIG. 1A-B: FIG. 1A, Experimental protocol for high fat diet feeding and intracerebroventricular (ICV) cannula implantation. 4 week old male C57B1/6 mice were fed a high fat diet for 4 weeks and ICV cannulae were implanted. After 5 days recovery from surgery infusion studies were performed. FIG. 1B, Protocol for infusion studies. Mice were injected with lipopolysaccharides (LPS) (1 mg/kg, i.p.) and randomly assigned to receive ICV insulin or vehicle infusions for 4 hours until necropsy.
FIG. 3: ICV insulin treatment reduces LPS induced pro-inflammatory cytokine levels. Mice were injected with LPS (1mg/kg, i.p.) infused with central insulin (0.02 mU/h) or vehicle for 4 h and sacrificed. Serum concentrations of TNF-α and IL-6 were determined by ELISA. n=12-14 per group, *p<0.05.
Male C57B1/6 mice were weaned at 4 weeks of age and fed a High Fat Diet (HFD) for 35 days to induce insulin resistance. After 30 days of HFD feeding, the mice underwent stereotactic surgery to implant intracerebroventricular (ICV) guide cannula (see, FIG. 2 for an illustration of cannula placement) followed by a 5-day recovery period until infusion experiments were carried out. […]
Background: ELISA stands for enzyme-linked immunosorbent assay.

Experiment [3] has as its system LPS induced pro-inflammatory proteins in spleen. Nature of the experiment: Western blot of spleen tissue lysates after LPS injection and ICV infusion. The class given is in vivo, mice. As to conditions: LPS 1 mg/kg i.p., ICV infusion 4 h, vs vehicle. How it is done:
as §1
FIG. 4: ICV insulin treatment reduces LPS induced pro-inflammatory proteins in spleen. Quantification of Western blot analyses from spleen tissue lysates expressed as fold change to vehicle and normalized over β-actin. Activation of the transcription factors Stat1 and Stat3 is decreased. The pro-inflammatory markers IL-1β, COX2 and IKK-β are reduced in the ICV insulin infused animals. n=6 per group, *p<0.05.
(§2) Male C57B1/6 mice were weaned at 4 weeks of age and fed a High Fat Diet (HFD) for 35 days to induce insulin resistance. After 30 days of HFD feeding, the mice underwent stereotactic surgery to implant intracerebroventricular (ICV) guide cannula (see, FIG. 2 for an illustration of cannula placement) followed by a 5-day recovery period until infusion experiments were carried out. On the day of the experiment, animals were placed in individual cages, received an intraperitoneal (i.p.) injection of E. coli (LPS) (1 mg/kg) and were continuously ICV infused using a micro infusion pump with Artificial CerebroSpinal Fluid (ACSF) or Insulin (0.005 mU/h) for 4 hours, yielding a total dose of 0.020 mU. See FIG. 1A-B for a graphical illustration of the protocol.
To investigate whether central insulin reduces cytokine signaling in peripheral tissues, the expression and phosphorylation of signal transducer and activator of transcription (Stat) was measured in lung (FIG. 4), spleen (FIG. 5) and liver (FIG. 6) tissue by western blot. […] Likewise, the activation of Stat3 which plays a central role in signaling of IL-6 and related cytokines was decreased in peripheral tissues after ICV insulin infusion. Lower protein levels of the pro-inflammatory cytokine IL-1β were detectable in the insulin-infused animals in liver, spleen and lung tissue. Lower IL-1β levels in lung tissue has been associated with improvement of acute lung injury, which is a clinically important sequelae in sepsis.
For orientation: Immunoblotting shows a protein as a band on a membrane.

Experiment [4] concerns LPS induced pro-inflammatory proteins in lung. Description: Western blot of lung tissue lysates after LPS injection and ICV infusion. The class given is in vivo, mice. As to conditions: LPS 1 mg/kg i.p., ICV infusion 4 h, vs vehicle. The protocol:
as §1
FIG. 5: ICV insulin treatment reduces LPS induced pro-inflammatory proteins in lung. Quantification of Western blot analyses from lung tissue lysates expressed as fold change to vehicle and normalized over α-tubulin. Activation of the transcription factors Stat1 is decreased by central insulin. The level of the pro-inflammatory cytokine IL-1β is reduced in the ICV insulin infused animals. n=6 per group, *p<0.05.
Male C57B1/6 mice were weaned at 4 weeks of age and fed a High Fat Diet (HFD) for 35 days to induce insulin resistance. […]
To investigate whether central insulin reduces cytokine signaling in peripheral tissues, the expression and phosphorylation of signal transducer and activator of transcription (Stat) was measured in lung (FIG. 4), spleen (FIG. 5) and liver (FIG. 6) tissue by western blot. […]

Experiment [5] deals with signal transducer and activator of transcription (Stat). Description: Stat expression and phosphorylation in peripheral tissues (lung, spleen, liver) by western blot. The class given is in vivo, mice. Particulars: after ICV insulin infusion. The protocol:
as §2
To investigate whether central insulin reduces cytokine signaling in peripheral tissues, the expression and phosphorylation of signal transducer and activator of transcription (Stat) was measured in lung (FIG. 4), spleen (FIG. 5) and liver (FIG. 6) tissue by western blot. […] Likewise, the activation of Stat3 which plays a central role in signaling of IL-6 and related cytokines was decreased in peripheral tissues after ICV insulin infusion. Lower protein levels of the pro-inflammatory cytokine IL-1β were detectable in the insulin-infused animals in liver, spleen and lung tissue. […]

The next experiment deals with LPS-treated mice. Description: Survival in a mouse model of sepsis (LPS 5 mg/kg, i.p.). As to conditions: high fat diet C57B16 mice, ICV infusion up to 5 days, vs vehicle, assessed daily. The experiment is classed as in vivo. The protocol: FIG. 9: ICV insulin improves survival in a mouse model of sepsis. 4 weeks old C57B16 mice were fed high fat diet for 4 weeks and ICV cannulas were implanted. Mice were injected with LPS (5 mg/kg, ip) and randomly assigned to receive ICV insulin or vehicle infusions for up to 5 days (n=11 per group). Survival was assessed daily as depicted.
In view of the potent anti-inflammatory effects mediated by insulin when administered to the CNS, studies were undertaken to determine whether administration of insulin to the CNS would protect mice from death in a sepsis model. 4-week old C57B16 mice were fed high fat diet for 4 weeks and ICV cannulas were implanted as described above. Mice were injected with LPS (5 mg/kg, i.p.) and randomly assigned to receive ICV insulin or vehicle infusions for up to 5 days (n=11 per group). Survival was assessed daily and results were plotted, see, e.g., FIG. 9.

The mark [6] stands for this setting: ICV insulin 4 h, normalized over β-actin.

“Also recorded” adds a separate entry of the source.

As to `O=C[C@H](O)[C@@H](O)[C@H](O)[C@H](O)CO` [glucose], in experiment [1] (ICV glucose 4 mM for 4 hours), the “Activation of Stat1 in liver” value is reported as “significantly increased”, the “Activation of Stat3 in liver” value is on record as “significantly increased”, the “IKK-β levels in liver (NF-κB signaling)” value is “Higher levels” and the “PDI expression in liver (marker for ER stress)” value is listed as “Higher levels; also recorded: elevated”.

Consider insulin, for which, in experiment [2], the “Serum concentration of IL-6” value is on record as “reduces” and the “Serum concentration of TNF-α” value is “reduces”. In addition, in experiment [3], the “COX2 protein in spleen” value is given as “reduced”, the “IKK-β protein in spleen” value is listed as “reduced” and the “IL-1β protein in spleen” value is listed as “reduced; also recorded: Lower”. For the same compound, in experiment [3] (normalized over β-actin), the “Activation of Stat1 in spleen” value is “decreased” and the “Activation of Stat3 in spleen” value is recorded as “decreased”. Besides, the “IL-1β protein in lung” value in experiment [4] is given as “reduced; also recorded: Lower”. Moreover, in experiment [4] (normalized over α-tubulin), the “Activation of Stat1 in lung” value was “decreased”. Also, the “IL-1β protein in liver” value in experiment [1] (ICV insulin 4 h) is “reduced; also recorded: Lower”. Also, in experiment [1] (setting [6]), the “Activation of Stat1 in liver” value is given as “decreased” and the “Activation of Stat3 in liver” value is reported as “decreased”. For the same compound, the “Activation of Stat3 in peripheral tissues” value in experiment [5] is recorded as “decreased”. In experiment [5] (measured in lung, spleen and liver), the “LPS induced phosphorylation of Stat1” value is “marked inhibition”. Also, the Survival result in the experiment on LPS-treated mice is listed as “significantly (p=0.0194) improved; also recorded: significantly improve the survival”.
